What was measured:
[1] = Stability in simulated gastric fluid (SGF); assay type: in vitro ADME; settings: for half-life: 2 μg/mL, read-out: SGF t1/2
Experimental: (§1) The stability of exemplary compounds in simulated gastric fluid (SGF) and simulated intestinal fluid (SIF) was tested according to the following protocol.

[2] = in vitro; settings: for half-life / Observations: stability / GNX production in human plasma: plasma
Experimental: The plasma stability of exemplary compounds was tested using rat, mice, dog, and human plasma, according to the following protocol. For each test compound, samples at a final concentration of 2 μg/mL were prepared in blank plasma of selected species. All samples were incubated at 37° C. on a 150-RPM orbital shaker, and an aliquot was removed at pre-determined time points (0, 15, 30, 60, and 120 minutes). Samples were precipitated with three volumes of acetonitrile containing propranolol as internal standard, and centrifuged for 10 min at 2000 g before LC/MS/MS analysis of the supernatant solutions.

[3] = Stability in simulated intestinal fluid (SIF); assay type: in vitro ADME; settings: for half-life: 2 μg/mL, read-out: SIF t1/2
Experimental: as §1

[4] = in vitro; assay type: in vitro ADME, human
Experimental: (§2) For several compounds only human liver microsomal stability was tested. […] The microsomal assays were carried out with and without the addition of NADPH at a final concentration of 1 mM. For negative control samples, NADPH reagent was not added. […] Note that compounds undergo only Phase I metabolism in liver microsomes.

[5] = Rat liver microsomal stability; assay type: in vitro ADME
Experimental: as §2
CLint=the intrinsic hepatic clearance (uL/min/mg), where CLint is equal to 0.693/(t1/2×Cmp)

[6] = SGF with pepsin pH 1.2, 37° C., 60 min
[7] = simulated gi fluid, SGF with pepsin pH 1.2, 37° C.
[8] = SIF with pancreatin pH 6.8, 37° C., 60 min
[9] = simulated gi fluid, SIF with pancreatin pH 6.8, 37° C.
[10] = human liver microsomes 0.5 mg/mL, with NADPH, compound 0.5 μM, 37° C., read-out: Human Liver Microsomal Stability t1/2
[11] = human liver microsomes 0.5 mg/mL, with NADPH, compound 0.5 μM, read-out: Human Liver Microsomal Stability CLint (uL/min/mg liver) (converted)
[12] = human liver microsomes, no NADPH, compound 0.5 μM
[13] = rat liver microsomes 0.5 mg/mL, with NADPH, compound 0.5 μM, 37° C., read-out: Rat Liver Microsomal Stability t1/2
[14] = rat liver microsomes 0.5 mg/mL, with NADPH, compound 0.5 μM, read-out: Rat Liver Microsomal Stability CLint (uL/min/mg liver)
[15] = rat liver microsomes, no NADPH, compound 0.5 μM
[16] = simulated gi fluid, 1 h, pH 1.2

SMILES | SGF (% remain, 60 min) [1, 6] [%] | half-life ([2]; human) [h] | SIF (% remain, 60 min) [3, 8] [%] | half-life [4, 10] [min] | microsomal CLint [4, 11] [µL/min/mg] | Human Liver Microsomal Stability no NADPH, % remain 1 h [4, 12] [%] | Human plasma t90 ([2]; human plasma, 2 μg/mL, 37° C.) [min] | Observations: stability / GNX production in human plasma ([2]; human) | Comments: production of GNX (ganaxolone) in human liver microsomes ([4]; human liver microsomes) | Comments: production of GNX (ganaxolone) in rat liver microsomes ([5]; rat liver microsomes) | further results
COCCOCCOCC(=O)OCO[C@]1(C)CC[C@@]2(C)[C@@H](CC[C@@H]3[C@@H]2CC[C@]2(C)[C@@H](C(C)=O)CC[C@@H]32)C1 [Compound 503] | 68 | < 0.5 | ~90 | 5.65 | 245 | 11.6 | – | – | – | – | half-life [1, 7]: 118 min; half-life [3, 9]: ~30 min
CCOC(=O)CNCC(=O)O[C@]1(C)CC[C@@]2(C)[C@@H](CC[C@@H]3[C@@H]2CC[C@]2(C)[C@@H](C(C)=O)CC[C@@H]32)C1 [Compound 103] | 98.4 | – | 75.9 | – | – | – | – | – | – | – | –
CC(=O)[C@H]1CC[C@H]2[C@@H]3CC[C@H]4C[C@](C)(OC(=O)CNCC(=O)OC(C)(C)C)CC[C@]4(C)[C@H]3CC[C@]12C [Compound 109] | 96.2 | – | 92.9 | – | – | – | – | – | – | – | –
COc1ccccc1N1CCN(CC(=O)O[C@]2(C)CC[C@@]3(C)[C@@H](CC[C@@H]4[C@@H]3CC[C@]3(C)[C@@H](C(C)=O)CC[C@@H]43)C2)CC1 [Compound 100] | 90.8 | 3.07 | 93.2 | 11.9 | 116 | 100.0 | 27.8 | Stable in human, GNX not | GNX not produced in human or rat | GNX not produced in human or rat | Rat plasma t90 ([2]; rat plasma, 2 μg/mL, 37° C.): 27.9 min; half-life ([2]; rat): 3.08 h; half-life [5, 13]: 12.7 min; microsomal CLint [5, 14]: 109 µL/min/mg; Rat Liver Microsomal Stability no NADPH, % remain 1 h [5, 15]: 98.0%
CC(=O)[C@H]1CC[C@H]2[C@@H]3CC[C@H]4C[C@](C)(OC(=O)CN5CCOCC5)CC[C@]4(C)[C@H]3CC[C@]12C [Compound 101] | – | 26.9 | – | – | – | – | – | Stable in human | GNX not produced in human or rat | GNX not produced in human or rat | SGF (% remain, 60 min) [1, 16]: 90.5%; Human plasma t90 ([2]; human): 243.0 min; Rat plasma t90 ([2]; rat): 342.0 min; half-life ([2]; rat): 37.8 h; SIF (% remain, 60 min) ([3]; simulated gi fluid, 1 h, pH 6.8): 90.2%; half-life ([4]; human, microsomes): 10.2 min; microsomal CLint ([4]; human, microsomes): 137 µL/min/mg; Human Liver Microsomal Stability no NADPH, % remain 1 h ([4]; human, microsomes): 99.0%; half-life ([5]; rat, microsomes): 6.8 min; microsomal CLint ([5]; rat, microsomes): 204 µL/min/mg; Rat Liver Microsomal Stability no NADPH, % remain 1 h ([5]; rat, microsomes): 100.0%
COC(=O)[C@@H](C)NCC(=O)O[C@]1(C)CC[C@@]2(C)[C@@H](CC[C@@H]3[C@@H]2CC[C@]2(C)[C@@H](C(C)=O)CC[C@@H]32)C1 [Compound 106] | – | – | – | – | – | – | – | – | GNX not produced in human | – | SGF (% remain, 60 min) [1, 16]: 2.80%; half-life ([4]; human, microsomes): 4.57 min; microsomal CLint ([4]; human, microsomes): 303 µL/min/mg; Human Liver Microsomal Stability no NADPH, % remain 1 h ([4]; human, microsomes): 3.05%
CC(=O)[C@H]1CC[C@H]2[C@@H]3CC[C@H]4C[C@](C)(OCOC(=O)CN5CCOCC5)CC[C@]4(C)[C@H]3CC[C@]12C [Compound 504] | 0.4 | 0.285 | 49.0 | 2.5 | 554 | 0.8 | 2.54 | – | – | – | half-life [1, 7]: 7.41 min; half-life [3, 9]: 88.4 min
CC(=O)[C@H]1CC[C@H]2[C@@H]3CC[C@H]4C[C@](C)(OC(=O)CNCCO)CC[C@]4(C)[C@H]3CC[C@]12C [Compound 107] | – | – | – | – | 21.4 | 99 | – | – | GNX not produced in human or rat | GNX not produced in human or rat | half-life ([4]; human, microsomes): 64.7 min; half-life [5, 13]: 21.9 min; microsomal CLint [5, 14]: 63 µL/min/mg; Rat Liver Microsomal Stability no NADPH, % remain 1 h [5, 15]: 98%
COCCN(C)CC(=O)O[C@]1(C)CC[C@@]2(C)[C@@H](CC[C@@H]3[C@@H]2CC[C@]2(C)[C@@H](C(C)=O)CC[C@@H]32)C1 [Compound 104] | – | – | – | 12 | 116 | 98 | – | – | GNX not produced in human or rat | GNX not produced in human or rat | half-life [5, 13]: 7.41 min; microsomal CLint [5, 14]: 187 µL/min/mg; Rat Liver Microsomal Stability no NADPH, % remain 1 h [5, 15]: 99%
CC(=O)[C@H]1CC[C@H]2[C@@H]3CC[C@H]4C[C@](C)(OC(=O)COC(=O)CN5CCN(C)CC5)CC[C@]4(C)[C@H]3CC[C@]12C [Compound 208] | – | 2.95 | – | 37 | 37.4 | 72 | 26.6 | No GNX produced | In human GNX not produced | – | –
CC(=O)[C@H]1CC[C@H]2[C@@H]3CC[C@H]4C[C@](C)(OC(=O)COC(=O)OCCN(C)C)CC[C@]4(C)[C@H]3CC[C@]12C [Compound 220] | – | 0.352 | – | 11.8 | 117 | 4 | 3.18 | In human no GNX | – | – | –
CC(=O)[C@H]1CC[C@H]2[C@@H]3CC[C@H]4C[C@](C)(OC(=O)CN5CCN(C)CC5)CC[C@]4(C)[C@H]3CC[C@]12C [Compound 102] | 56.3 | – | 74.7 | – | – | – | – | – | – | – | –
CC(=O)[C@H]1CC[C@H]2[C@@H]3CC[C@H]4C[C@](C)(OC(=O)CSC(C)(C)C(=O)O)CC[C@]4(C)[C@H]3CC[C@]12C [Compound 305] | – | – | – | 171 | 8.12 | 98.8 | – | – | In human small amount of GNX produced | – | –

From patent US20250034201A1, “PRODRUGS OF GANAXOLONE” (priority 2022, published 2025)
